Like-named read-outs stand apart in the source and are kept apart here.
What was measured:
[1] = tested on: EBOV-GFP (recombinant Ebolavirus encoding a GFP reporter gene); test: microbe, parasite or virus in culture; assay type: cell-based
[2] = tested on: Ebolavirus; conditions: human, in vivo; cited from earlier work
[3] = tested on: Ebolavirus; conditions: cited from earlier work
[4] = tested on: Huh7 cells; test: Cytotoxicity, CellTiter-Glo Luminescent Cell Viability Assay; conditions: Table 2, 24 h incubation
[5] = as above; conditions: human, Huh7 cells
[6] = in humans, metabolite formed by CYP2C8; cited from earlier work

SMILES | anti-Ebolavirus activity (previous reports) [3] | CC50 [4] | Selectivity index [1] | IC50 ([1]; Orthoebolavirus, Huh-7) | IC50 ([1]; Orthoebolavirus, Huh-7, 24 h) | CC50 at 24 h [5] | other results
CCN(CC)Cc1cc(Nc2ccnc3cc(Cl)ccc23)ccc1O [Amodiaquine] | potent anti-Ebolavirus activity | 79000 nM |  |  |  |  | IC50 ([1]; read-out: IC50): 2130 nM; mortality rate [2]: 50%
CCN(CC)Cc1cc(Nc2ccnc3cc(I)ccc23)ccc1O [Compound 18, 4-(7-iodoquinolin-4-ylamino)-2-diethylaminomethylphenol] |  | > 100000 nM | >156 | 640 nM | 640 ± 50 nM | > 100000 nM | fold potency relative to amodiaquine [1]: 3.3 fold
CCCCN(CCCC)Cc1cc(Nc2ccnc3cc(Cl)ccc23)ccc1O [Compound 28, 4-(7-chloroquinolin-4-ylamino)-2-dibutylaminomethylphenol] |  | > 100000 nM | >139 | 720 nM | 720 ± 80 nM | > 100000 nM | 
Oc1ccc(Nc2ccnc3cc(I)ccc23)cc1CN1CCCCC1 [Compound 43, 4-(7-iodoquinolin-4-ylamino)-2-(1-piperidinylmethyl)phenol] |  |  | >270 | 370 nM | 370 ± 70 nM | > 100000 nM | 
Oc1ccc(Nc2ccnc3cc(I)ccc23)cc1CN1CCOCC1 [Compound 44, 4-(7-iodoquinolin-4-ylamino)-2-(4-morpholinylmethyl)phenol] |  |  | >63 | 1590 nM | 1590 ± 120 nM | > 100000 nM | 
Oc1ccc(Nc2ccnc3cc(I)ccc23)cc1CN1CCSCC1 [Compound 45, 4-(7-iodoquinolin-4-ylamino)-2-(4-thiamorpholinylmethyl)phenol] |  |  | >51 | 1950 nM | 1950 ± 220 nM | > 100000 nM | 
CCNCc1cc(Nc2ccnc3cc(Cl)ccc23)ccc1O [desethyl-amodiaquine] | potent anti-Ebolavirus activity |  |  |  |  |  | half-life [6]: 220 to 432 h
COc1ccc2nc3cc(Cl)ccc3c(Nc3cc(CN4CCCC4)c(O)c(CN4CCCC4)c3)c2n1 [pyronaridine] | anti-Ebolavirus activities |  |  |  |  |  | 
CCN(CC)CCCC(C)Nc1c2ccc(Cl)cc2nc2ccc(OC)cc12 (stereo not shown) [quinacrine] | anti-Ebolavirus activities |  |  |  |  |  | 

From US11571416B2, “Amodiaquine analogs and methods of uses thereof” (priority 2017, dated 2023)
